From patent US20160168537A1, “DIFFERENTIATED CELLULAR COMPOSITIONS AND METHODS FOR THEIR PREPARATION AND USE” (LIFE TECHNOLOGIES CORPORATION, priority 2013, published 2016)

Tests used:
[1] = test system: CYP2B6; experiment: P450 induction assay in HepaRG cells (CYP2B6 activity, hydroxybupropion formation from bupropion); type: cell-based; conditions: HepaRG cells cultured without matrix overlay; 10 μM RIF, 72 hours of treatment; induction is seen only when the cells are overlayed
Method: Cryopreserved HepaRG™ cells (Life Technologies Corporation) are terminally differentiated prior to cryopreservation. Frozen HepaRG™ cells were thawed and plated per manufacturer's instructions and placed into 37° C., 5% CO2 cell culture incubator. 24 hours after plating, media was aspirated and cells were overlayed using 0.35 mg/mL Geltrex® matrix in 4° C. in 770 media. 72 hours after plating, media was aspirated and media was exchanged with either 740 or 750 media containing 0.1% DMSO, 50 μM omeprazole (OMP), 1 mM Phenobarbital (PB), or 10 μM Rifampicin (RIF). 740 and 750 media containing vehicle or prototypical inducers was replaced daily for a total of 72 hours of treatment. Day 6 of culture (24 hours after last dosing), P450 activity was evaluated and total RNA was isolated. P450 activity was evaluated utilizing in situ incubations of prototypical substrates (100 μM phenacetin, 500 bupropion, 10 μM midazolam, or 200 μM testosterone) in Hanks' Balanced Salts Solution (HBSS) for 1 hour at 37° C. shaking on microplate shaker @600 rpm. After in situ incubations were completed, incubation matrix (supernatant/HBSS) was removed from cell monolayer and metabolite formation was evaluated by LC/MS-MS analysis. Microphotographs were taken daily to monitor morphological changes.

[2] = test system: CYP2B6; conditions: primary human hepatocytes, via PXR activation; stated as typical behaviour; cited from earlier work

SMILES: CO[C@H]1/C=C/O[C@@]2(C)Oc3c(C)c(O)c4c(O)c(c(/C=N/N5CCN(C)CC5)c(O)c4c3C2=O)NC(=O)/C(C)=C\C=C\[C@H](C)[C@H](O)[C@@H](C)[C@@H](O)[C@@H](C)[C@H](OC(C)=O)[C@@H]1C [RIF, Rifampicin]
- induction of CYP2B6 [1]: does not induce
- induction of CYP2B6 enzyme activity [2]: induces
